Like-named read-outs stand apart in the source and are kept apart here.
Legend:
SARS-CoV-2 M^pro = SARS-CoV-2 M^pro (Severe acute respiratory syndrome coronavirus 2, UniProt P0DTD1); experiment: Inhibition profiling in cell culture (dark-to-bright GFP reporter substrate, flow cytometry); type: cell-based; details: for Inhibition of SARS-CoV-2 M^pro in cell culture: 200 micromolar concentration of the inhibitors, HEK-293 T cells
[1] = test system: SARS-associated coronavirus; details: combination of lopinavir/ritonavir and ribavirin; cited from earlier work
SARS-CoV-2 [2] = test system: SARS-CoV-2; design: method as in PMID 32147628; details: in vitro; cited from earlier work
HEK-293 T cells = experiment: Cell viability assay (MTT); details: for Tolerability by HEK-293 T cells: high concentrations; for Cytotoxicity: HEK-293 T cells
[3] = patient's serum under antiretroviral treatment; cited from earlier work
MERS-CoV = details: Calu-3 cells; cited from earlier work
SARS-CoV-2 [4] = details: Vero E6 cells; cited from earlier work
[5] = HEK-293 T cells co-transfected with CoV-2 M^pro and PR-Sub plasmids, 24 h, GFP fluorescence, triplicate experiments, read-out: IC50

Structure (SMILES): Cc1c(O)cccc1C(=O)N[C@@H](CSc1ccccc1)[C@H](O)CN1C[C@H]2CCCC[C@H]2C[C@H]1C(=O)NC(C)(C)C [Nelfinavir, nelfinavir]
- IC50 (SARS-CoV-2 M^pro): > 200 µM
- Inhibition of SARS-CoV-2 M^pro in cell culture (SARS-CoV-2 M^pro): failed to inhibit

Structure (SMILES): NC(=O)c1ncn([C@@H]2O[C@H](CO)[C@@H](O)[C@H]2O)n1 [ribavirin]
- Concentration effective against SARS-associated coronavirus [1]: 50 µg/mL

Structure (SMILES): CC(C)CN(C[C@@H](O)[C@H](Cc1ccccc1)NC(=O)O[C@H]1CO[C@H]2OCC[C@H]21)S(=O)(=O)c1ccc(N)cc1 [Darunavir, darunavir]
- Concentration inhibiting SARS-CoV-2 replication (SARS-CoV-2 [2]): 300 µM
- IC50 (SARS-CoV-2 M^pro; read-out: IC50): 36.1 µM
- Tolerability by HEK-293 T cells (HEK-293 T cells): well tolerated

Structure (SMILES): CC(C)(C)NC(=O)[C@@H]1C[C@@H]2CCCC[C@@H]2CN1C[C@@H](O)[C@H](Cc1ccccc1)NC(=O)[C@H](CC(N)=O)NC(=O)c1ccc2ccccc2n1 [Saquinavir, saquinavir]
- Minimum concentration (Cmin) [3]: 3.8 µM
- IC50 (SARS-CoV-2 M^pro): 31.4 µM
- Cytotoxicity (HEK-293 T cells; concentrations above 50 µM): > 50%

Structure (SMILES): CC(C)c1nc(CN(C)C(=O)N[C@H](C(=O)N[C@@H](Cc2ccccc2)C[C@H](O)[C@H](Cc2ccccc2)NC(=O)OCc2cncs2)C(C)C)cs1 [Ritonavir, ritonavir]
- Cytotoxicity (HEK-293 T cells; concentrations above 50 µM): > 50%
- IC50 (MERS-CoV): 24.9 µM
- Inhibition of viral replication (SARS-CoV-2 [4]): no inhibition of viral replication

Structure (SMILES): Cc1cccc(C)c1OCC(=O)N[C@@H](Cc1ccccc1)[C@@H](O)C[C@H](Cc1ccccc1)NC(=O)[C@H](C(C)C)N1CCCNC1=O [Lopinavir, lopinavir]
- IC50 (SARS-CoV-2 M^pro): Indeterminable
- Cytotoxicity (HEK-293 T cells; concentrations above 50 µM): 90%
- IC50 (MERS-CoV): 11.6 µM

Structure (SMILES): CCC[C@@]1(CCc2ccccc2)CC(O)=C([C@H](CC)c2cccc(NS(=O)(=O)c3ccc(C(F)(F)F)cn3)c2)C(=O)O1 [Tipranavir, tipranavir]
- Inhibition of SARS-CoV-2 M^pro in cell culture (SARS-CoV-2 M^pro): failed to inhibit
- IC50 (SARS-CoV-2 M^pro; [5]): > 200 µM

Structure (SMILES): COC(=O)N[C@H](C(=O)N[C@@H](Cc1ccccc1)[C@@H](O)CN(Cc1ccc(-c2ccccn2)cc1)NC(=O)[C@@H](NC(=O)OC)C(C)(C)C)C(C)(C)C [Atazanavir, atazanavir]
- Minimum concentration (Cmin) [3]: < 1 µM
- IC50 (SARS-CoV-2 M^pro; [5]): 60.7 µM
- Cytotoxicity (HEK-293 T cells; concentration of 200 µM): cytotoxicity was not observed
- Tolerability by HEK-293 T cells (HEK-293 T cells): well tolerated

Source: PMC7689640, “Analysis of the efficacy of HIV protease inhibitors against SARS-CoV-2′s main protease” (Virology Journal, 2020)
